Here are results for one substance from patent US9657080B2, “Methods for treating diseases with peptides that inhibit IGF-1” (Universite Pierre et Marie Curie (Paris 6), priority 2009, dated 2017).

Where no end group is shown, it is not given here.

This data set concerns female rats. The experiment in a line: Subcutaneous administration to female rats: GH effects and anti-peptide antibody. In kind it is in vivo.

“Ac-GTSDRVYEKLAGSKNFFWKTFTSS [P7, Acetyl-GTSDRVYEKLAGSKNFFWKTFTSS]”: the anti-peptide antibody induction result is “without inducing, nevertheless, anti-peptide antibody”.
